Results taken from PubChem BioAssay (NCI).
“And” between values parts separate entries of the source, which are not always exact repeats. Equal values may be shown once.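 Protocol summary: plate cells (96-well), add compound at 5 concentrations, incubate 48 h, interpolate endpoints linearly. The concentration for 50% growth inhibition is given as GI50. At the TGI there is no net growth.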

How the values were obtained:
Test in all cases: DTP human tumour cell line panel, 48 h
[1] = test system: RXF 393 renal
[2] = test system: UO-31 renal
[3] = test system: 786-0 renal
[4] = test system: SF-295 CNS
[5] = test system: MCF7 breast
[6] = test system: HCT-116 colon
[7] = test system: HOP-62 NSCLC
[8] = test system: IGROV1 ovarian
[9] = test system: DU-145 prostate
[10] = test system: COLO 205 colon
[11] = test system: PC-3 prostate
[12] = test system: SR leukemia
[13] = test system: HL-60(TB) leukemia
[14] = test system: SF-268 CNS
[15] = test system: SN12C renal
[16] = test system: SK-MEL-28 melanoma
[17] = test system: HS 578T breast
[18] = test system: ACHN renal
[19] = test system: CAKI-1 renal
[20] = test system: SNB-19 CNS
[21] = test system: UACC-257 melanoma
[22] = test system: UACC-62 melanoma
[23] = test system: TK-10 renal
[24] = test system: NCI-H522 lung
[25] = test system: HCC-2998 colon
[26] = test system: A549 NSCLC
[27] = test system: SK-MEL-5 melanoma
[28] = test system: SF-539 CNS
[29] = test system: OVCAR-8 ovarian
[30] = test system: MDA-MB-435
[31] = test system: NCI/ADR-RES ovarian
[32] = test system: EKVX NSCLC
[33] = test system: SW-620 colon
[34] = test system: A498 renal
[35] = test system: M14 melanoma
[36] = test system: LOX IMVI melanoma
[37] = test system: OVCAR-3 ovarian
[38] = test system: NCI-H23 lung
[39] = test system: T-47D breast
[40] = test system: KM12 colon
[41] = test system: U251 CNS
[42] = test system: OVCAR-4 ovarian
[43] = test system: NCI-H460 lung
[44] = test system: HT29 colon
[45] = test system: MDA-MB-231 breast
[46] = test system: NCI-H226 lung
[47] = test system: K-562 leukemia
[48] = test system: RPMI-8226 leukemia
[49] = test system: SK-OV-3 ovarian
[50] = test system: MALME-3M melanoma
[51] = test system: OVCAR-5 ovarian
[52] = test system: MOLT-4 leukemia
[53] = test system: HCT-15 colon
[54] = test system: SNB-75 CNS
[55] = test system: BT-549 breast
[56] = test system: HOP-92 NSCLC
[57] = test system: SK-MEL-2 melanoma
[58] = test system: CCRF-CEM leukemia

`Nc1ncnc2c1N=C(c1ccc3c(c1)OCO3)CC(c1ccc(Cl)cc1)N2` (stereo not given) was tested, and the GI50 [1] was 2.51 µM, the TGI [1] was 13.5 µM and the GI50 [2] was 7.47 µM. The TGI [2] was greater than 100 µM, the GI50 [3] was 21.7 µM and the TGI [3] was greater than 100 µM. It also gave a GI50 [4] of 14.7 µM, a TGI [4] greater than 100 µM and a GI50 [5] of 3.61 µM. It also gave a TGI [5] of 45.5 µM, a GI50 [6] of 10.7 µM and a TGI [6] of 22.5 µM. It also gave a GI50 [7] of 16.6 µM, a TGI [7] of 42.6 µM and a GI50 [8] of 0.351 µM. It also gave a TGI [8] of 3.76 µM, a GI50 [9] of 16.8 µM and a TGI [9] of 33.3 µM. It also gave a GI50 [10] of 15 µM, a TGI [10] greater than 100 µM and a GI50 [11] of 9.06 µM. The TGI [11] was 22.1 µM, the GI50 [12] was greater than 100 µM and the TGI [12] was greater than 100 µM. For the same molecule, the GI50 [13] was 5.38 µM, the TGI [13] was greater than 100 µM and the GI50 [14] was 8.52 µM. The TGI [14] was 45.9 µM, the GI50 [15] was 80.4 µM and the TGI [15] was greater than 100 µM. It also gave a GI50 [16] of 30.4 µM, a TGI [16] greater than 100 µM and a GI50 [17] of 1.07 µM. It also gave a TGI [17] of 7.09 µM, a GI50 [18] of 8.25 µM and a TGI [18] greater than 100 µM. It also gave a GI50 [19] of 22.7 µM, a TGI [19] of 86.3 µM and a GI50 [20] greater than 100 µM. The TGI [20] was greater than 100 µM, the GI50 [21] was greater than 100 µM and the TGI [21] was greater than 100 µM. For the same molecule, the GI50 [22] was 72.1 µM, the TGI [22] was greater than 100 µM and the GI50 [23] was 8.22 µM. For the same molecule, the TGI [23] was 38.9 µM, the GI50 [24] was 2.37 µM and the TGI [24] was greater than 100 µM. For the same molecule, the GI50 [25] was 5.88 µM, the TGI [25] was 35 µM and the GI50 [26] was 11.6 µM. It also gave a TGI [26] of 30.1 µM, a GI50 [27] of 85.1 µM and a TGI [27] greater than 100 µM. The GI50 [28] was 26.2 µM, the TGI [28] was greater than 100 µM and the GI50 [29] was 4.66 µM. For the same molecule, the TGI [29] was 25.1 µM, the GI50 [30] was 56.3 µM and the TGI [30] was greater than 100 µM. It also gave a GI50 [31] of 5.35 µM, a TGI [31] of 41.2 µM and a GI50 [32] of 40.6 µM. It also gave a TGI [32] greater than 100 µM, a GI50 [33] of 4.91 µM and a TGI [33] greater than 100 µM. It also gave a GI50 [34] of 5.93 µM, a TGI [34] greater than 100 µM and a GI50 [35] of 25.5 µM. It also gave a TGI [35] greater than 100 µM, a GI50 [36] of 10.1 µM and a TGI [36] of 33 µM. For the same molecule, the GI50 [37] was 3.71 µM, the TGI [37] was 18.6 µM and the GI50 [38] was 21.4 µM. The TGI [38] was greater than 100 µM, the GI50 [39] was 20.9 µM and the TGI [39] was greater than 100 µM. It also gave a GI50 [40] of 2.03 µM, a TGI [40] of 30.7 µM and a GI50 [41] of 6.19 µM. It also gave a TGI [41] of 25.8 µM, a GI50 [42] of 4.58 µM and a TGI [42] of 35.2 µM. It also gave a GI50 [43] of 21.8 µM, a TGI [43] greater than 100 µM and a GI50 [44] of 17.2 µM. The TGI [44] was greater than 100 µM, the GI50 [45] was 27 µM and the TGI [45] was greater than 100 µM. The GI50 [46] was 44.8 µM, the TGI [46] was greater than 100 µM and the GI50 [47] was 4.27 µM. The TGI [47] was greater than 100 µM, the GI50 [48] was 1.5 µM and the TGI [48] was 8.33 µM. It also gave a GI50 [49] of 92.6 µM, a TGI [49] greater than 100 µM and a GI50 [50] of 89.1 µM. It also gave a TGI [50] greater than 100 µM, a GI50 [51] of 18.3 µM and a TGI [51] of 90.7 µM. For the same molecule, the GI50 [52] was 5.85 µM, the TGI [52] was greater than 100 µM and the GI50 [53] was 3.05 µM. The TGI [53] was greater than 100 µM, the GI50 [54] was 5.22 µM and the TGI [54] was 38.3 µM.

With `N#Cc1nc2c(S(=O)(=O)c3ccc(Cl)cc3)c(N)n(Nc3cccc(Cl)c3)c2nc1C#N` the GI50 [2] was 0.333 µM, the TGI [2] was greater than 100 µM and the GI50 [3] was 0.0389 µM. For the same molecule, the GI50 [4] was 0.0427 µM, the TGI [4] was 0.276 µM and the GI50 [5] was 0.015 µM. For the same molecule, the GI50 [6] was 0.015 µM, the GI50 [7] was 0.109 µM and the GI50 [8] was 0.0385 µM. For the same molecule, the TGI [8] was 0.179 µM, the TGI [9] was greater than 100 µM and the GI50 [11] was 0.00279 µM. The GI50 [13] was 0.0052 µM, the TGI [13] was 0.0871 µM and the TGI [14] was greater than 100 µM. It also gave a GI50 [15] of 0.033 µM, a GI50 [55] of 0.131 µM and a GI50 [16] of 0.00349 µM. It also gave a TGI [16] of 0.011 µM, a GI50 [18] of 0.0277 µM and a GI50 [19] of 0.0311 µM. The GI50 [20] was 0.137 µM, the TGI [21] was 37.2 µM and the GI50 [22] was 0.115 µM. It also gave a TGI [22] of 0.336 µM, a GI50 [23] of 0.0207 µM and a TGI [56] of 0.099 µM. For the same molecule, the GI50 [24] was 0.11 µM, the TGI [24] was 0.449 µM and the GI50 [25] was 0.0161 µM. The TGI [25] was greater than 100 µM, the TGI [26] was greater than 100 µM and the GI50 [27] was 0.115 µM. The TGI [27] was 0.657 µM, the GI50 [28] was 0.0307 µM and the TGI [28] was 0.179 µM. The TGI [29] was greater than 100 µM, the GI50 [30] was 0.0497 µM and the TGI [30] was 0.379 µM and 0.067 µM. The GI50 [31] was 0.0505 µM, the TGI [31] was greater than 100 µM and the GI50 [32] was 0.0693 µM and 0.0266 µM. It also gave a GI50 [33] of 0.014 µM, a TGI [33] of 0.0733 µM and a GI50 [35] of 0.0671 µM. The TGI [35] was 0.304 µM, the GI50 [57] was 0.105 µM and 0.0126 µM and the TGI [57] was 0.387 µM and 0.0857 µM. For the same molecule, the GI50 [36] was 0.0301 µM, the TGI [37] was 0.0132 µM and the GI50 [38] was 0.0324 µM. It also gave a GI50 [39] of 0.0258 µM, a GI50 [41] of 0.0294 µM and a GI50 [42] of 0.0166 µM. The GI50 [43] was 0.0704 µM, the TGI [43] was greater than 100 µM and the GI50 [58] was 0.0101 µM. It also gave a GI50 [44] of 0.0295 µM, a GI50 [45] of 0.0178 µM and a TGI [45] of 0.0869 µM. The GI50 [46] was 0.106 µM, the TGI [46] was 0.322 µM and 0.302 µM and the GI50 [47] was 0.0309 µM. For the same molecule, the GI50 [48] was 0.00251 µM, the TGI [48] was 0.019 µM and 0.0668 µM and the GI50 [49] was 0.0858 µM. For the same molecule, the GI50 [50] was 0.0532 µM, the TGI [50] was 0.33 µM and the GI50 [51] was 0.0219 µM and 0.0224 µM. The TGI [51] was 0.106 µM and 0.175 µM, the GI50 [52] was 0.0162 µM and the TGI [52] was 0.103 µM. For the same molecule, the GI50 [53] was 0.0982 µM, the TGI [53] was greater than 100 µM and the GI50 [54] was 0.0115 µM. The TGI [54] was 0.059 µM.

`COc1cc(/C=C2\C[C@H]3[C@@H]4CCc5cc(OCCN6CCCC6)ccc5[C@H]4CC[C@]3(C)C2=O)cc(OC)c1OC` showed a TGI [9] of 3.56 µM, a TGI [10] of 2.81 µM and a TGI [55] greater than 100 µM. For the same molecule, the TGI [21] was 4.89 µM, the TGI [22] was 7.22 µM and the TGI [27] was 2.86 µM. For the same molecule, the TGI [57] was 5.34 µM, the TGI [38] was 7.4 µM and the TGI [40] was 3.36 µM. For the same molecule, the TGI [49] was 8.3 µM and the TGI [53] was 3.77 µM.
